# Measured values published in patent publication US20240082296A1, “TREATMENT OF MUSCLE ATROPHY USING DEXTRAN SULFATE” (TX MEDIC AB, priority 2020, published 2024).
# Assays:
# Format in all cases: in vivo, human
# [1] = tested on: patients with ALS; test: Phase IIa trial in ALS patients: serum myoglobin and creatine kinase (Example 2)
# Procedure: (§1) A clinical trial in the form of a Phase IIa, single-center, open label, single-arm study where the safety, tolerability and possible efficacy of subcutaneously administered dextran sulfate was evaluated in patients with ALS of intermediate progression rate. The clinical trial was conducted at the Sahlgrenska University Hospital, Gothenburg, Sweden and was overseen and approved by the Ethics Committee of the University of Gothenburg and by the Swedish Medical Products Agency.
# (§2) Dextran sulfate (Tikomed AB, Viken, Sweden, WO 2016/076780) was administered at 1 mg/kg by […] subcutaneous injection once a week for five weeks to 13 human patients suffering from ALS.
# (§3) Blood samples were drawn at defined study intervals by a venous catheter into vacutainer tubes. Laboratory analyses of blood plasma were performed immediately after collection by the Clinical Chemistry Laboratory at the Sahlgrenska University Hospital.
# [2] = tested on: hepatocyte growth factor (HGF); test: circulating HGF after dextran sulfate injection in ALS patients (Example 2); settings: peak at 2.5 hours after injection; before 820±581; p<0.001
# Procedure: as §1, §2, §3
# This indicates the potential for direct myogenic, as well as indirect neurotrophic, HGF-mediated effects on muscle atrophy after dextran sulfate administration.
# [3] = tested on: patients with ALS; test: clinical observation of muscle function (ALSFRS-R) in ALS patients (Example 2); settings: during the five-week treatment period; 1 mg/kg s.c. weekly
# Procedure: as §1, §2
# ALSFRS-R was assessed pre-treatment and weekly thereafter for the 5 treatment weeks and for the visits at the follow-up period.
# The biochemical evidence of reduced muscle degeneration supports the clinical observations of improved muscle function. For example, in the ALSFRS-R, functions mediated by cervical, trunk, lumbosacral, and respiratory muscles are each assessed by 3 items and scores in these categories show close agreement with objective measures of muscle strength.
# [4] = tested on: ALS patients; test: serum metabolites by HPLC pre- and post-treatment in ALS patients (Example 3)
# Source text: The objective of this Example was to evaluate the effect of repeated dextran sulfate administration on the concentrations of serum metabolites in serum samples from a cohort of Swedish ALS patients who had participated in the trial entitled ‘A single-centre, open single-arm study where the safety, tolerability and efficacy of subcutaneously administered ILB® will be evaluated in patients with Amyotrophic Lateral Sclerosis’. Using a longitudinal design, this study aimed to determine the changes of selected serum metabolites in each ALS patient before and after weekly dextran sulfate treatment. Changes in the measured metabolites indicate the biochemical response of the patient to dextran sulfate that is underpinning potential disease modification and the mechanisms of action of the drug in this patient population.
# After an initial screening visit, patients had five weekly dosing of a single dextran sulfate (ILB®, Tikomed AB, Viken, Sweden, WO 2016/076780) injection of 1.0 mg/kg body weight in saline into the subcutaneous fat of the lower abdomen.
# Peripheral venous blood samples were been collected from the patients after at least 15 minutes of complete rest, using the standard tourniquet procedure, from the antecubital vein into a single VACUETTE® polypropylene tube containing serum separator and clot activator (Greiner-Bio One GmbH, Kremsmunster, Austria). After 30 minutes at room temperature, blood withdrawals were centrifuged at 1,890×g for 10 min and the resulting serum samples were stored at −20° C. until analysis.
# After defrost, an aliquot of 500 μl of each serum sample was supplemented with 1 ml of HPLC-grade acetonitrile, vortexed for 60 seconds, centrifuged at the maximum speed in a top-bench centrifuge to precipitate proteins. Supernatants were washed with large volumes of HPLC-grade chloroform to remove organic solvent, centrifuged and the upper aqueous phases were transferred in different tubes, clearly labeled to identify the sample and stored at −80° C. until analyzed to determine different water-soluble compounds.
# A second aliquot of about 300 μl of each serum sample was light-protected and then processed to extract fat-soluble antioxidants using a method described in detail elsewhere (Lazzarino et al., Single-step preparation of selected biological fluids for the high performance liquid chromatographic analysis of fat-soluble vitamins and antioxidants. J Chromatogr A. 2017; 1527: 43-52.). Briefly, samples were supplemented with 1 ml of HPLC-grade acetonitrile, vigorously vortexed for 60 s and incubated at 37° C. for 1 h in a water bath under agitation, to allow the full extraction of lipid soluble compounds. Samples were then centrifuged at 20,690×g for 15 min at 4 C to precipitate proteins and the clear supernatants were saved at −80° C. until the HPLC analysis of fat-soluble vitamins and antioxidants.
# In deproteinized serum samples, the following water-soluble compounds were separated and quantified by HPLC, according to methods described elsewhere (Tavazzi et al., Simultaneous high performance liquid chromatographic separation of purines, pyrimidines, N-acetylated amino acids, and dicarboxylic acids for the chemical diagnosis of inborn errors of metabolism. Clin Biochem. 2005; 38: 997-1008; Romitelli et al., Comparison of nitrite/nitrate concentration in human plasma and serum samples measured by the enzymatic batch Griess assay, ion-pairing HPLC and ion-trap GC-MS: The importance of a correct removal of proteins in the Griess assay. J Chromatogr B Analyt Technol Biomed Life Sci. 2007; 851: 257-267; Amorini et al., Metabolic profile of amniotic fluid as a biochemical tool to screen for inborn errors of metabolism and fetal anomalies. Mol Cell Biochem. 2012; 359: 205-216): hypoxhantine, xanthine, uric acid, malondialdehyde (MDA), nitrite, nitrate, N-acetylaspartate (NAA), citrulline (CITR), alanine (ALA), and ornithine (ORN). […]
# [5] = post- vs pre-treatment, five weekly 1.0 mg/kg s.c.
substance,measurement,setting,value
dextran sulfate,reduction in serum creatine kinase levels,[1]; after 4 weeks,13.3%
same,reduction in serum myoglobin levels,[1]; after 4 weeks vs Day 1,30%
same,serum myoglobin levels,"[1]; after 4 weeks, 1 mg/kg s.c. once a week, Day 1: 133.92±126.28, p=0.021",103.69 ± 72.16 µg/L
same,serum creatine kinase levels,"[1]; after 4 weeks, 1 mg/kg s.c. once a week, before 7.15±5.74, p<0.05",6.2±5.08 μkat/L
same,"circulating HGF, peak",[2],37.9 ± 14.2 ng/mL
same,severe bulbar paresis in two patients,[3],almost complete resolution
same,serum CITR,[4]; [5],ameliorated
same,serum MDA,[4]; [5],decreased
same,serum NAA,[4]; [5],Significantly lower
same,serum ORN/CITR ratio,[4]; [5],ameliorated
same,serum nitrate,[4]; [5],decreased
same,serum nitrite+nitrate,[4]; [5],decreased
same,serum sum of oxypurines (hypoxanthine+xanthine+uric acid),[4]; [5],decreased
same,serum uric acid,[4]; [5],decreased
same,serum α-tocopherol,[4]; [5],ameliorated
same,serum γ-tocopherol,[4]; [5],ameliorated
same,circulating values of ALA,"[4]; post-treatment, equal to controls, significantly lower than pre-treatment",normalized
